Measurements: publication PMC5766233, “Ternary copper(II) complex: NCI60 screening, toxicity studies, and evaluation of efficacy in xenograft models of nasopharyngeal carcinoma” (PLoS ONE, 2018)
Read-outs that look alike come from different tables or passages of the source.

How the values were obtained:
CYP 2B6 = molecular target: T1, CYP 2B6 (Homo sapiens, UniProt P20813); test: CYP450 inhibition assay, pooled human liver microsomes; conditions: read-out: IC50 CYP 2B6; probe bupropion
T1 sequence (P20813 1-491): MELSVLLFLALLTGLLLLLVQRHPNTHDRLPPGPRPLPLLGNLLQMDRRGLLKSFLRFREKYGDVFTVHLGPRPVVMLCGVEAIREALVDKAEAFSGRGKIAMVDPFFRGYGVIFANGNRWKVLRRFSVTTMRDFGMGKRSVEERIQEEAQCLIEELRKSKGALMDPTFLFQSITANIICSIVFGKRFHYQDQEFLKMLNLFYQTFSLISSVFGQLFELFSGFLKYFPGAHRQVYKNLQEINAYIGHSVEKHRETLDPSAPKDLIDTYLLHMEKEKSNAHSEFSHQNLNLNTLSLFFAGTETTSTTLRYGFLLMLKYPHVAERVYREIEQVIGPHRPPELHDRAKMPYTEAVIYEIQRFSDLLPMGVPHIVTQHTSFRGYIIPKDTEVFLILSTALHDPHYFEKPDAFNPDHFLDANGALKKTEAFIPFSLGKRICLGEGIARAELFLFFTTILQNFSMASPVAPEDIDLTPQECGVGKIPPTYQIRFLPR
Experimental: (§1) In the CYP inhibition assay, human liver microsomes were incubated with the Cu(II) complex or reference standard. The inhibitory effects of these compounds were investigated against the major CYP isoforms namely 1A2, 2C9, 2C19, 2D6, 2B6, 2C8 and 3A4 with their respective isoform probe substrates in one reaction mixture (pooled probe substrate format using LC-MS/MS).
(§2) Pooled human liver microsomes (Sekisui Xeno Tech, LLC., Kansas City, KS, USA) were incubated with different concentrations of Cu(II) complex or reference standards in buffer containing 0.1% DMSO for 10 min at 37°C and the residual enzyme activity was measured using pooled probe substrates method by pooled LC-MS/MS. Briefly, incubation mixtures were prepared in a total volume of 200 μL with final component concentrations as follows: 0.1 M potassium phosphate buffer (pH 7.4), 1.5 mM NADPH, and 0.25 mg/ml HLM. […] After 20 min of incubation, the reactions were terminated by addition of 200 μL ice-cold acetonitrile (Rankem, Avantor Performance Materials India Limited, Andhra Pradesh, India) containing telmisartan and carbamazepine as internal standards (all probe substrates and standards were from Sigma Aldrich). Each reaction mixture was centrifuged at 3,500 rpm for 5 min and the supernatant was subjected to LC-MS/MS analysis. The percent inhibition was calculated using the following equation: %Inhibition=100‑[(activityintestwells/activityinbasalcontrolwells)×100]

CYP 2C19 = CYP 2C19 (Homo sapiens, UniProt P33261); test: as above; conditions: read-out: IC50 CYP 2C19; probe S-mephenytoin
CYP 2C19, sequence (P33261 whole entry): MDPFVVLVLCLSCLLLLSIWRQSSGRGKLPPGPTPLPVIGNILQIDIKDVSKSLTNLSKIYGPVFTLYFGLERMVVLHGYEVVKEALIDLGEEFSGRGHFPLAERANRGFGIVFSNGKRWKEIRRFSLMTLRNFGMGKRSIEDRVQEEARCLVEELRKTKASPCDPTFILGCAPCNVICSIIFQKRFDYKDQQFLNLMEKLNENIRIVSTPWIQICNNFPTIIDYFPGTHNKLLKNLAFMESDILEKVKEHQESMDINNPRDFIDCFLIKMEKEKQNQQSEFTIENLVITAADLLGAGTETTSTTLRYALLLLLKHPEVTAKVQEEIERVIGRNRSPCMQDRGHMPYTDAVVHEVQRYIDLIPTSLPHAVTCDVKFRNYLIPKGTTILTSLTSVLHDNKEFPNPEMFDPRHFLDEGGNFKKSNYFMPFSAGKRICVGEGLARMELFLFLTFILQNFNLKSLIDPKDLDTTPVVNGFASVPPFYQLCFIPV
Experimental: as §1, §2

[1] = system: NCI60 human cancer cell line panel
[2] = Hematotoxicity evaluation (blood, spleen, bone marrow) in xenograft bearing mice; assay type: in vivo, NOD scid gamma female mice; conditions: for Band neutrophil / Basophils / Eosinophils / Hemoglobin / Lymphocytes / MCHC / MCV / Monocytes / PVC / Plasma protein / RBC / Segmented neutrophil / Thrombocytes / WBC: C666-1-GFP-Luc2 xenograft mice, mean ± SEM
Experimental: Values of hematological parameters of mice bearing C666-1-GFP-Luc2, an Epstein-barr virus (EBV) positive NPC cell line xenografts which were treated with 4 and 5 mg/kg of the Cu(II) complex were compared with those from control groups (Table 3). […] This indicated absence of anemia.
We further investigated the effects of Cu(II) complex on spleen and bone marrow (from femur) responses.
Blood samples were collected into BD Microtainer Tubes containing dipotassium EDTA (Becton, Dickinson and Company, New Jersey, USA) and submitted to the Veterinary Laboratory Services Unit, Faculty of Veterinary Medicine, Universiti Putra Malaysia, Serdang, Malaysia, for full blood count (FBC) analysis.
Major organs, bones and excised tumors were preserved in 10% neutral buffered formaldehyde solution (Leica Biosystems, Germany) for 24 to 48 h and subsequently processed into formalin-fixed paraffin-embedded tissue blocks following standard tissue processing protocol using Leica ASP300 S (Leica Biosystems, Nussloch, Germany). Fixed bones (skull, femur and tibia) were decalcified with Surgipath Decalcifier I (Leica Biosystems, Germany) for 4 to 6 h depending on size before tissue processing. After paraffin embedding, tissue blocks were sectioned ([…]) using rotary microtome Microm HM340E (Thermo Scientific, Walldorf, Germany) and stained with hematoxylin and eosin (H&E) dyes using Leica Autostainer XL (Leica Biosystems, Nussloch, Germany) before histopathological examination.
All H&E-stained tissue section slides were examined under Nikon Eclipse Ni microscope (Nikon Instruments Inc., New York, USA) and microscopic images were taken using 20x and 40x objectives. For H&E tumor section slides, the percentage of tumor necrosis was determined qualitatively using microscope by the histopathologist in order to estimate the percentage of necrotic area induced by the Cu(II) complex in the tumors. For determination of femoral bone marrow suppression, low power (10x magnification) objective was used to scan the slides while 100x magnification to assess the degree of cellularity and amount of fat present.

SMILES: CC(C)(N)C(=O)[O-].O.O=[N+]([O-])[O-].[Cu+2].c1cnc2c(c1)ccc1cccnc12 [Cu(II) complex, [Cu(phen)(C-dmg)(H2O)]NO3]
- IC50 (CYP 2B6): 7.59 µM
- IC50 (CYP 2C19): 10.3 µM
- CC50 [1]: > 100 µM
- cytotoxicity compared with cisplatin (mean LC50) ([1]; NCI60 panel): fivefold more cytotoxic
- CC50 ([1]; read-out: LC50, all renal cell lines): 1 to 10 µM
- CC50 ([1]; read-out: LC50, leukemia panel (CCRF-CEM, HL-60(TB), K-562, MOLT-2, RPMI-8226, SR)): > 100 µM
- GI50 ([1]; read-out: mean GI50, NCI60 panel, 48 h): 1.51 µM
- CC50 ([1]; read-out: mean LC50, NCI60 panel, 48 h): 9.12 µM
- Band neutrophil ([2]; 4 mg/kg): 0.1 ± 0.0 x10^9/L
- Basophils ([2]; 4 mg/kg): 0.0 ± 0.0 x10^9/L
- Eosinophils ([2]; 4 mg/kg): 0.0 ± 0.0 x10^9/L
- Hemoglobin ([2]; 4 mg/kg): 126.8 ± 10.0 g/L
- Lymphocytes ([2]; 4 mg/kg): 0.2 ± 0.0 x10^9/L
- MCHC ([2]; 4 mg/kg): 308.5 ± 4.9 g/L
- MCV ([2]; 4 mg/kg): 52.9 ± 1.2 fL
- Monocytes ([2]; 4 mg/kg): 0.2 ± 0.1 x10^9/L
- PVC ([2]; 4 mg/kg): 0.4 ± 0.0 L/L
- Plasma protein ([2]; 4 mg/kg): 59.5 ± 2.2 g/L
- RBC ([2]; 4 mg/kg): 7.8 ± 0.7 x10^12/L
- Segmented neutrophil ([2]; 4 mg/kg): 2.0 ± 0.4 x10^9/L
- Thrombocytes ([2]; 4 mg/kg): 1659.0 ± 120.4 x10^9/L
- WBC ([2]; 4 mg/kg): 2.5 ± 0.5 x10^9/L
- Band neutrophil ([2]; 5 mg/kg): 0.1 ± 0.0 x10^9/L
- Basophils ([2]; 5 mg/kg): 0.0 ± 0.0 x10^9/L
- Eosinophils ([2]; 5 mg/kg): 0.0 ± 0.0 x10^9/L
- Hemoglobin ([2]; 5 mg/kg): 133.7 ± 4.4 g/L
- Lymphocytes ([2]; 5 mg/kg): 0.1 ± 0.0 x10^9/L
- MCHC ([2]; 5 mg/kg): 308.3 ± 5.0 g/L
- MCV ([2]; 5 mg/kg): 56.2 ± 1.8 fL
- Monocytes ([2]; 5 mg/kg): 0.2 ± 0.0 x10^9/L
- PVC ([2]; 5 mg/kg): 0.4 ± 0.0 L/L
- Plasma protein ([2]; 5 mg/kg): 55.7 ± 2.5 g/L
- RBC ([2]; 5 mg/kg): 7.8 ± 0.4 x10^12/L
- Segmented neutrophil ([2]; 5 mg/kg): 2.5 ± 0.2 ^* x10^9/L
- Thrombocytes ([2]; 5 mg/kg): 1288.2 ± 155.8 x10^9/L
- WBC ([2]; 5 mg/kg): 2.9 ± 0.3 ^* x10^9/L
- spleen weight ([2]; C666-1-GFP-Luc2 bearing mice, 5 and 6 mg/kg, vs control groups): significantly lower weight
- spleen weight ([2]; HK1 bearing mice, 4, 6 and 8 mg/kg): did not show weight loss
- bone marrow suppression (femur) ([2]; all treated groups): no evidence of bone marrow suppression
